In the experiment the target is Cyclic GMP-AMP synthase (Mus musculus, UniProt Q8C6L5). Briefly: Inhibition of mouse cGAS by ATP consumption assay.

pIC50: −log10 of the molar value.

As usually defined, the pIC50 is the IC50 on a negative log10 scale, so that one unit is a factor of ten.

Sequence of Cyclic GMP-AMP synthase (Q8C6L5 whole entry): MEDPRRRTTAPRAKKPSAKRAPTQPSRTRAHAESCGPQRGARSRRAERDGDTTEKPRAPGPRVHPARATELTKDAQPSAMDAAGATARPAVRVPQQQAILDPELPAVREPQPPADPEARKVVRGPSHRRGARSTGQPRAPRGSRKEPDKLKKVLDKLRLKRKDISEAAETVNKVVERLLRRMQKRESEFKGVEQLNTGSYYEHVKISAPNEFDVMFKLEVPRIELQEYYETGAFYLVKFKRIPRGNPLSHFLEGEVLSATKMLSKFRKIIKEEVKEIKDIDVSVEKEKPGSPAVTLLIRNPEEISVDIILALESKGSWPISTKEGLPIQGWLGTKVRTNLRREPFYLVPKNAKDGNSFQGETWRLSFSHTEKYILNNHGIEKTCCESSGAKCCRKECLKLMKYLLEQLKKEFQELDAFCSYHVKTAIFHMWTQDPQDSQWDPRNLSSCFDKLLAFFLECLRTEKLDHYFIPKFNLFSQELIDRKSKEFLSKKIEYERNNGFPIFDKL

`CCn1nc(C)cc1C(=O)Nc1nc2cc(C(N)=O)cc(OC)c2n1C/C=C/Cn1c(NC(=O)c2cc(C)nn2CC)nc2cc(C(N)=O)cc(OCCCN3CCOCC3)c21` showed a pIC50 of 6.57.

Source of the values: ChEMBL document CHEMBL5329150, “STING antagonists, synthesized via Povarov-Doebner type multicomponent reaction” (RSC Med Chem, 2023).
